Source: patent US7998736B2, “Adoptive immunotherapy with enhanced T lymphocyte survival” (The United States of America as represented by the …, priority 2004, dated 2011)

What was measured:
[1] = tested on: CTLL-2 cells; assay: CTLL-2 proliferation assay (3H-thymidine); type: cell-based, mouse; conditions: Sup-T1 supernatants or control cytokine, 24 h
Protocol: The CTLL-2 assay was used to determine whether IL-15 produced by transduced Sup-T1 cells was biologically active.
CTLL-2 cells were grown in culture for 4 days and then harvested and washed twice in PBS and then plated into a 96-well plate, 5×10^3 cells/well. The CTLL-2 cells were incubated in the absence of cytokines for 4 hours. Supernatants from the transduced Sup-T1 cells were then added to the culture in serial dilutions. […] The CTLL-2 cells were cultured for a total of 24 hours; during the final six hours ^3H-Thymidine was added to each well. The CTLL-2 cells were harvested to a filter and read on a β-counter.

[2] = tested on: IL-15Rα; assay: IL-15Ralpha expression by flow cytometry; type: cell-based, human; conditions: OKT3 stimulated lymphocytes, FIG. 15
Source text: In vitro, supraphysiologic levels of cytokine can engage intermediate and low affinity IL-15 receptors on lymphocytes lacking IL-15Rα. […] IL-15Rα was detected with a polyclonal, biotinylated antibody and biotinylated isotype-matched control antibody; cell surface-bound antibody was then labeled with streptavidin-PE (R&D Systems). PE was detected through flow cytometry.

IL-15: exogenous recombinant human IL-15 added to culture media
proliferation of CTLL-2 [1]: did proliferate
IL-15Rα staining [2]: did not manifest IL-15Rα staining
